Literature values in paper PMC5784132, “Investigation of 20S-hydroxyvitamin D3 analogs and their 1α-OH derivatives as potent vitamin D receptor agonists with anti-inflammatory activities” (Scientific Reports, 2018).

Tests used:
[1] = tested on: collagen-induced arthritis; design: method as in earlier work; conditions: mouse model, dose as low as 2 µg/kg; cited from earlier work
[2] = design: method as in earlier work; conditions: mice, doses as high as 60 µg/kg; cited from earlier work

Structure (SMILES): C=C1CC[C@H](O)C/C1=C/C=C1\CCC[C@@]2(C)[C@H]1CC[C@@H]2[C@@](C)(O)CCCC(C)C [20S(OH)D3, 20S-hydroxyvitamin D3]
- effect on collagen-induced arthritis [1]: suppressive effects
- hypercalcemia [2]: does not cause hypercalcemia
